Results from patent US7098307B2, “Neo-tryptophan” (Mayo Foundation for Medical Education and Research, priority 1998, dated 2006).
Where two headings read alike, the source gives them in different places. Square brackets hold non-standard residues; d marks the D form. Peptide text beside a SMILES is read from it. Ala(indol-4-yl) = N[C@@H](Cc1cccc2[nH]ccc12)C(=O)O; NMeR = CN[C@@H](CCCNC(=N)N)C(=O)O; Tle = CC(C)(C)[C@H](N)C(=O)O

Tests used:
[1] = target: T1, human NTR1 (Homo sapiens, UniProt P30989); test: Competition binding with [3H]NT, membranes of CHO-K1 cells transfected with human NTR1
T1 construct: expressed in transfected cells; host or cells: CHO-K1
Procedure: (§1) CHO-K1 cells were stably transfected with nucleic acid encoding either the human NTR1 or the rat NTR1, and cultured in 150 mm petri plates with 35 mL of Dulbecco-modified Eagle's medium containing 100 μM minimal essential medium nonessential amino acids (GIBCO) supplemented with 5% (v/v) FetalClone II bovine serum product (Hyclone Labs, Logan, Utah). CHO cells (subculture 9–19) were harvested at confluency. Briefly, the medium from each plate was removed by aspiration, and the cells washed with 6 mL of 50 mM Tris-HCl (pH 7.4) and resuspended in 5–10 mL of Tris-HCl by scraping the cells with a rubber spatula. The resuspended cells were placed into a centrifuge tube and collected by centrifugation at 300× g for five minutes at 4° C. in a GPR centrifuge (Beckman Instruments, Fullerton, Calif.). The cellular pellet (in 50 mM Tris-HCl, 1 mM EDTA, pH 7.4) was stored at […] until radioligand binding was performed.
(§2) The supernatant was decanted and discarded, and the cellular pellet was resuspended in 2 mL of Tris-HCl, 1 mM EDTA (pH 7.4) followed by homogenization with a Brinkmann Polytron at setting 6 for ten seconds. Centrifugation was repeated as above and the supernatant was decanted and discarded. The resulting final cellular pellet was resuspended in 50 mM Tris-HCl, lmM EDTA, 0.1% bovine serum albumin, and 0.2 mM bacitracin.
(§3) Incubation was at 20° C. for 30 minutes. Each reaction was terminated by addition of cold 0.9% NaCl (5×1.5 mL) followed by rapid filtration through a GF/B filter strip that had been pretreated with 0.2% polyethylenimine.

[2] = target: T1, human NTR1; test: PI turnover ([3H]IP1) in intact CHO-K1 cells, human NTR1; assay type: cell-based
Procedure: (§4) To measure PI turnover, intact CHO-K1 cells were harvested at about 80% confluency. Cells were detached from the petri plates by removal of culture medium followed by incubation of the cellular monolayer for 20 minutes at 37° C. with gentle shaking in a modified Puck's D1 solution containing 2 mM EGTA. […] Briefly, intact CHO cells were prelabeled with D-myo-[^3H]inositol (18.3 Ci/mmol) in the presence of lithium chloride (final concentration, 10 mM). […] For the experiments described herein, the stimulation time was 30 minutes, and the number of CHO cells per assay tube was 1.5×10^5.

[3] = target: T2, rat NTR1 (Rattus norvegicus, UniProt P20789); test: PI turnover ([3H]IP1) in intact CHO-K1 cells, rat NTR1; assay type: cell-based
T2 construct: expressed in transfected cells; host or cells: CHO-K1
Procedure: as §4

[4] = Degradation in human plasma (HPLC peak area); assay type: in vitro ADME; settings: 25% plasma, 37° C., 0.5 mg/mL polypeptide; for half-life at 0.5 mg/mL: human, read-out: half-time, Plasma Human (converted)
Source text: (§5) For the degradation studies, data were plotted in linear form as a semi-log plot with SigmaPlot for Windows Version 4.00. Linear regression on these plots provided the parameters used to calculate the half-time (t1/2) for degradation of each polypeptide. The correlation coefficient (R) for the linear regression was taken as a measure of the goodness-of-fit.

[5] = Degradation in rat intestinal preparation; assay type: in vitro ADME; settings: pH 7.4, 37° C., read-out: half-time, Rat Intestinal Preparation (converted)
Procedure: For intestinal preparations, rats were sacrificed by decapitation, and the small intestines removed. The tissue was washed with ice-cold PBS (10 mM, pH 7.4). About […] of intestinal tissue was added to about 10 mL of PBS and homogenized using a Brinkman polytron homogenizer (setting 6). After homogenization, 10 mL of PBS was added to 10 mL of the intestinal homogenate. […] The supernatant was removed and stored at −20° C. until testing. Immediately before incubation with the polypeptide, the intestinal preparation was filtered through a 0.2 μm filter. Testing procedures were similar to those for the plasma tests.
as §5

[6] = Body temperature (hypothermia) in rats; settings: for Peak BT change / time of Peak BT change: rats; for induction of hypothermia: intraperitoneal administration (NT64L 1 mg/kg)
[7] = Hot plate test (antinociception, % MPE) in rats; settings: for induction of antinociception (hot plate): intraperitoneal administration (NT64L 1 mg/kg); for ED50 % MPE: intraperitoneal
[8] = target: T2, rat NTR1; test: Competition binding with [3H]NT, membranes of CHO-K1 cells transfected with rat NTR1
Procedure: as §1, §2, §3

[9] = Degradation in rat plasma (HPLC peak area); assay type: in vitro ADME; settings: 25% plasma, 37° C., 0.5 mg/mL polypeptide, read-out: half-time, Plasma Rat (converted)
Source text: as §5

[10] = target: adrenergic α1 receptors; test: Radiolabeled competitive binding, human brain tissue, adrenergic α1
[11] = target: T3, dopamine D2 receptors (Homo sapiens, UniProt P14416); test: Radiolabeled competitive binding, human brain tissue, dopamine
T3 construct: Human brain tissue; from tissue; host or cells: human brain tissue

[12] = target: 5HT2A receptor (Homo sapiens, UniProt P28223); test: Competitive binding with [3H]ketanserin, human brain tissue; settings: for competition with labeled ketanserin for binding at the 5HT2A receptor: human brain tissue
[13] = target: α2-adrenergic receptors; test: Radiolabeled competitive binding, human brain tissue, adrenergic α2
[14] = target: Muscarinic; test: Radiolabeled competitive binding, human brain tissue, muscarinic

CN[C@@H](CCCNC(=N)N)C(=O)N[C@@H](CCCCN)C(=O)N1CCC[C@H]1C(=O)N[C@@H](Cc1c[nH]c2ccccc12)C(=O)N[C@H](C(=O)N[C@@H](CC(C)C)C(=O)O)C(C)(C)C [Eisai, reference compound] (H-[NMeR]KPW[Tle]L-OH; N-terminus and C-terminus assumed)
weaker at the human NT receptor compared to binding affinity at the rat receptor ([1]; binding): ~20 fold | EC50 [2]: 300 nM | weaker at the human NT receptor than at the rat NT receptor, PI turnover [2]: ~100 fold | EC50 [3]: 3.1 nM | half-life at 0.5 mg/mL [4]: 460 h | half-life [5]: 22 h | Peak BT change ([6]; 1 mg/kg intraperitoneal): −2.9 @ ° C. | time of Peak BT change ([6]; 1 mg/kg intraperitoneal): 60 min | induction of hypothermia [6]: did induce | ED50 BT ([6]; intraperitoneal, @ 30 min): 0.26 mg/kg | ED50 BT ([6]; intraperitoneal, @ 90 min): 0.12 mg/kg | peak reduction in body temperature ([6]; intraperitoneal, dose not restated): about 3 °C | time of Peak % MPE ([7]; 1 mg/kg intraperitoneal, rats): 90 min | induction of antinociception (hot plate) [7]: did induce | ED50 % MPE ([7]; @ 30 min): 0.42 mg/kg | ED50 % MPE ([7]; @ 90 min): 0.08 mg/kg

CC(C)C[C@H](NC(=O)[C@@H](NC(=O)[C@H](Cc1cccc2[nH]ccc12)NC(=O)[C@@H]1CCCN1C(=O)[C@H](CCCNC(=N)N)NC(=O)[C@H](N)CCCCN)C(C)(C)C)C(=O)O [NT66L] (H-[dK]RP[Ala(indol-4-yl)][Tle]L-OH; N-terminus and C-terminus assumed)
Kd [1]: 3.7 ± 0.4 nM | Kd [8]: 0.85 ± 0.09 nM | EC50 [2]: 10 nM | EC50 [3]: 1.9 ± 0.4 nM | half-life at 0.5 mg/mL [4]: 170 h | half-life at 0.5 mg/mL [9]: 350 h | Kd ([10]; read-out: Kd adrenergic α1): 38000 nM | Kd [11]: 56000 nM | Peak BT change ([6]; 1 mg/kg intraperitoneal): −3.0 @ ° C. | time of Peak BT change ([6]; 1 mg/kg intraperitoneal): 240 min | Peak BT change ([6]; 5 mg/kg intraperitoneal): −5.0 @ ° C. | time of Peak BT change ([6]; 5 mg/kg intraperitoneal): 120 min | induction of hypothermia [6]: did induce | ED50 BT ([6]; intraperitoneal, @ 30 min): 0.45 mg/kg | ED50 BT ([6]; intraperitoneal, @ 60 min): 0.18 mg/kg | peak reduction in body temperature (change) ([6]; oral, 20 mg/kg): −1.4 °C | time of peak reduction in body temperature ([6]; oral, 20 mg/kg): 30 min | Peak % MPE ([7]; 1 mg/kg intraperitoneal, rats): 100% @ | time of Peak % MPE ([7]; 1 mg/kg intraperitoneal, rats): 120 min | Peak % MPE ([7]; 5 mg/kg intraperitoneal, rats): 100% @ | time of Peak % MPE ([7]; 5 mg/kg intraperitoneal, rats): 330 min | induction of antinociception (hot plate) [7]: did induce | ED50 % MPE ([7]; @ 30 min): 0.04 mg/kg | ED50 % MPE ([7]; @ 60 min): 0.02 mg/kg | peak % MPE value ([7]; oral, 20 mg/kg): 40% | time of Peak % MPE ([7]; oral, 20 mg/kg): 60 min | Kd [12]: 8700 nM | competition with labeled ketanserin for binding at the 5HT2A receptor [12]: found to compete

CC[C@H](C)[C@H](NC(=O)[C@H](Cc1cccc2[nH]ccc12)NC(=O)[C@@H]1CCCN1C(=O)[C@H](CCCNC(=N)N)NC(=O)[C@H](N)CCCCN)C(=O)N[C@@H](CC(C)C)C(=O)O [NT67L] (H-[dK]RP[Ala(indol-4-yl)]IL-OH; N-terminus and C-terminus assumed)
Kd [1]: 0.61 ± 0.06 nM | reduction in binding affinity compared to NT64L ([1]; NT receptor binding): about six fold lower | Kd [8]: 0.21 ± 0.02 nM | EC50 [2]: 0.83 nM | half-time, Plasma Human [4]: about 96 hours | half-life at 0.5 mg/mL [4]: 96 h | half-life at 0.5 mg/mL [9]: 130 h | half-life [5]: 0.77 h | Kd ([10]; read-out: Kd adrenergic α1 receptors): 6900 nM | Kd [13]: > 100000 nM | Kd [14]: > 100000 nM | Kd [11]: > 100000 nM | Peak BT change ([6]; 1 mg/kg intraperitoneal): −1.8 @ ° C. | time of Peak BT change ([6]; 1 mg/kg intraperitoneal): 120 min | induction of hypothermia [6]: did induce | Peak % MPE ([7]; 1 mg/kg intraperitoneal, rats): 70% @ | time of Peak % MPE ([7]; 1 mg/kg intraperitoneal, rats): 90 min | induction of antinociception (hot plate) [7]: did induce | competition with labeled ketanserin for binding at the 5HT2A receptor [12]: found to compete
